In US12329171B1, “Natural food preservative” (IMAM MOHAMMAD IBN SAUD ISLAMIC UNIVERSITY, priority 2024, dated 2025):

How the values were obtained:
S. aureus = test: Well diffusion assay, antibacterial; format: cell-based, Staphylococcus aureus; conditions: 10 μl
Description: (§1) The investigation focused on the antibacterial properties of extracts derived from onion peel, pomegranate peel, and chia seed, particularly when encapsulated in nanoformulations (OPE-CSNP and PPE-CSNP). The extracts, known for their richness in bioactive compounds like phenolic compounds, flavonoids, and tannins, were explored for potential health benefits against various microbes. The study employed the inhibition zone diameter to evaluate the effectiveness of these natural extracts in inhibiting microbial growth, thereby assessing their antimicrobial properties.
(§2) Moreover, these composites show promise as food preservatives, potentially extending shelf life, given their moderate antimicrobial activity against B. cereus and S. aureus.

B. cereus = test: Well diffusion assay, antibacterial; format: cell-based, Bacillus cereus; conditions: 10 μl
Description: as §1, §2

Row | Molecule | Inhibition zone diameter (mm) S. aureus (S. aureus) [mm] | Inhibition zone diameter (mm) B. cereus (B. cereus) [mm]
1 | CC1(C)S[C@@H]2[C@H](NC(=O)[C@H](N)c3ccccc3)C(=O)N2[C@H]1C(=O)O [Ampicillin, ampicillin] | 16 | 16
2 | penicillin | 14 | 14
